From US20160166654A1, “COLLAGEN-TARGETED NANOPARTICLES” (PURDUE RESEARCH FOUNDATION, priority 2011, published 2016)

System: TNF-α production by human monocytes (THP-1)
Assay: TNF-α production by THP-1 cells (ELISA)
Type: cell-based
Settings: 24 hours, FIG. 8
Procedure: The biocompatibility of the nanoparticles was assessed by measuring toxicity and inflammation in THP-1 cells. Cells were seeded at a density of 250,000 cells/ml in 96-well plates (Corning) and treated with 10 ng/ml phorbol 12-myristate 13-acetate (PMA, Sigma-Aldrich) for 48 hours to induce differentiation, which was confirmed by the monocytes becoming adherent. Following a change of media, cells were treated with various concentrations of core+shell nanoparticles. Control samples received PBS (negative control) or 50 ng/ml lipopolysaccharide (LPS, Sigma-Aldrich) (positive control). After 24 hours, the media was collected for cytokine analysis and an MTT-based assay was performed to determine cell toxicity using the Aqueous One Proliferation Kit (Promega) according to manufacturer's instructions. […] After two hours of incubation in the cell culture incubator, the absorbance was read at 490 nm with a correction at 650 nm.
The ability of the particles to cause an inflammatory response was determined by running conditioned cell media on a TNF-α ELISA (PeproTech) according to manufacturer instructions. […] Following incubation with a detection antibody and an avidin-horse radish peroxidase conjugate, the samples were developed with the addition of 2,2′-azino-bis(3-ethylbenzthiazoline-6-sulphonic acid) (ABTS) liquid substrate (Sigma-Aldrich) and monitored at 405 nm with a correction at 650 nm.

lipopolysaccharide was tested, and the TNF-α production was “did induce TNF-α production”.
